Experimental data reported in patent US7820623B2 (priority 2006, dated 2010).

Columns and labels:
[1] = system: thapsigargin-induced IFN-g production in human whole blood; format: cell-based
[2] = system: IL-2 production from αCD3 and αCD28 antibody stimulated human PBMCs; format: cell-based
[3] = system: IL-2R on CD4+ T cells in human whole blood; format: cell-based
[4] = system: adoptive transfer EAE model of multiple sclerosis; conditions: rat, in vivo, sc
[5] = system: IFNγ production from PMA and αCD3 antibody stimulated human PBMCs; format: cell-based
[6] = system: IL-2 production from PMA and αCD3 antibody stimulated human PBMCs; format: cell-based
[7] = system: IFNγ production from αCD3 and αCD28 antibody stimulated human PBMCs; format: cell-based
[8] = system: CD40L on CD4+ T cells in human whole blood; format: cell-based
[9] = rat, in vivo, iv
[10] = system: thapsigargin-induced IL-2 production in human whole blood

For `CC[C@H](C)[C@@H]1NC(=O)[C@@H](NC(=O)[C@H](CO)NC(=O)[C@@H](N)CCCNC(=N)N)CSSC[C@@H](C(=O)O)NC(=O)[C@H]([C@@H](C)O)NC(=O)CNC(=O)[C@@H]2CSSC[C@@H]3NC(=O)[C@H](CCC(N)=O)NC(=O)[C@H](Cc4ccccc4)NC(=O)[C@H](C)NC(=O)[C@H]([C@@H](C)O)NC(=O)[C@H](CSSC[C@H](NC(=O)[C@H](Cc4ccccc4)NC(=O)[C@H](CO)NC(=O)[C@H](CC(C)C)NC(=O)[C@H](CCCNC(=N)N)NC(=O)[C@H](Cc4ccc(O)cc4)NC(=O)[C@H](CCCCN)NC(=O)[C@H](CCSC)NC(=O)[C@H](CO)NC(=O)[C@H](Cc4cnc[nH]4)NC(=O)[C@H](CCCCN)NC3=O)C(=O)N[C@@H](CCCNC(=N)N)C(=O)N[C@@H](CCCCN)C(=O)N[C@@H]([C@@H](C)O)C(=O)N2)NC(=O)[C@H](CCCNC(=N)N)NC(=O)[C@H](CO)NC(=O)[C@H](CCCCN)NC(=O)[C@@H]2CCCN2C(=O)[C@H]([C@@H](C)CC)NC(=O)[C@H]([C@@H](C)O)NC(=O)[C@H](CC(=O)O)NC1=O` [ShK, reference compound], the “thapsigargin-induced IFN-g production in human whole blood” value [1] was “suppressed”, the “inhibition of IL-2 production” value [2] was “partial inhibition” and the “thapsigargin-induced upregulation of the IL-2R on T cells” value [3] was “suppressed”. The “body weight lost (average)” value [4] was 30 g, the “disease severity and survival” value [4] was “developed severe disease and died” and the onset of disease [4] was 4 days. For the same molecule, the “inhibition of IFNγ production” value [5] was “partial inhibition”, the “inhibition of IL-2 production” value [6] was “partial inhibition” and the “inhibition of IFNg production” value [7] was “partial inhibition”. The “thapsigargin-induced upregulation of CD40L on T cells” value [8] was “suppressed”, the “duration of significant suppression of Kv1.3 current (<70 POC) by serum” value [9] was at most 1 h and the “thapsigargin-induced IL-2 production in human whole blood” value [10] was “suppressed”.
